Reference: patent publication US20230382868A1 (priority 2022, published 2023)
Like-named read-outs stand apart in the source and are kept apart here.

Key:
[1] = target: hBChE (Homo sapiens, UniProt P06276); assay: biochemical; assay type: biochemical
[2] = target: T1, hMAO-B (Homo sapiens, UniProt P27338); assay type: biochemical; settings: read-out: IC50 ± SEM hMAO-B
T1 construct: purchased Sigma Aldrich; host or cells: BTI-TN-5B1-4 insect cells
T1 sequence (P27338 1-520): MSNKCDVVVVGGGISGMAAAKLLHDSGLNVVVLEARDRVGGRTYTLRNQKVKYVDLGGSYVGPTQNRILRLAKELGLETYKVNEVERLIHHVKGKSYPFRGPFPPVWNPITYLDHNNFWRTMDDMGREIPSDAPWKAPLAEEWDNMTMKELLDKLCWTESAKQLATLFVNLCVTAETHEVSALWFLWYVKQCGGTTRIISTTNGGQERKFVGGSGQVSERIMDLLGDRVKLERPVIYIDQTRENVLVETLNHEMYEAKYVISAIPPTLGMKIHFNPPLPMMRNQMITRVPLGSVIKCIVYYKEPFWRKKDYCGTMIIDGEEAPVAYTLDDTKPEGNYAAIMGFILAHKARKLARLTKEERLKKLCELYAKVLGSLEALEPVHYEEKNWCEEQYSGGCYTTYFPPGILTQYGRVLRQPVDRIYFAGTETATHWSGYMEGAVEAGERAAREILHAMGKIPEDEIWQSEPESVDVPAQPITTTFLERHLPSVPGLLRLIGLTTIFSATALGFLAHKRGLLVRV

[3] = Metal-chelating properties (UV-Vis spectra, Cu2+ titration, Yoe-Jones method); assay type: physicochemical; settings: 30 μM compound; for interception point of Cu2+ titration (Yoe-Jones method): 0-150 μM Cu2+, Cu2+/compound molar ratio; for change in absorption spectra on addition of Fe2+ and Fe3+ / change in absorption spectra with Ca2+ and Mg2+: equimolar metal ion, HEPES buffer pH 7.4
Protocol: The chelation properties were determined in HEPES buffer (20 mM, 150 mM NaCl, pH 7.4) using a 96-well microplate reader (Synergy HT; BioTek Instruments, Inc., VT, USA). To determine the chelation of the metal ions by the compounds, 30 μM compound solution was treated with equimolar concentrations of CuCl2, ZnCl2, CoCl2, MgCl2, CaCl2, FeCl2, FeCl3, and AlCl3. To prevent oxidation of Fe^2+, the solution of FeCl2 was prepared in the presence of 1 mM ascorbic acid. The absorption spectra were recorded after 30 min incubation at room temperature. The chelation was detected by the change in the absorption spectra, which was specific for each metal ion. The Cu^2+ binding stoichiometry was resolved by titration of a 30 μM buffered solution of the compounds with additions of CuCl2 buffered stock solution. […] The absorbance differences in the absence and presence of Cu^2+ were plotted against the Cu^2+/compound molar ratio.

[4] = DPPH radical-scavenging assay; settings: read-out: free-radical scavenging potency EC50 ± SEM (concentration that scavenged 50% of the DPPH free radicals); DPPH in MeOH, 90 min, room temperature, dark
Protocol: Free-radical scavenging potency was evaluated using the DPPH assay. […] The microtiter plate was incubated at room temperature in the dark for 90 min. The absorbance at 517 nm was then determined with a microplate reader (Synergy HT; BioTek Instruments, Inc., VT, USA). The experiments were performed in triplicate, with subtraction of the blank value (compound without DPPH). The percentages of DPPH free radicals were calculated as DPPH free radical (%)=[(A0−A1)/A0]×100, where A0 is the absorbance of the negative control, and A1 is the absorbance of the test sample. […] Resveratrol and Trolox were used as the positive controls under the same assay conditions.

[5] = Antioxidant capacity against hydroxyl radicals; settings: statement in words, no method given
[6] = system: primary cultured neurons; assay: Neuroprotection of primary cultured neurons after experimental ischemia; assay type: cell-based; settings: statement in words, no method given
[7] = target: hAChE (Homo sapiens, UniProt P22303); assay: Inhibition of cholinesterases (Ellman method); assay type: biochemical; settings: n.a. = not active (residual activity at 100 μM ≥50%); three independent experiments; read-out: IC50 ± SEM hAChE
hAChE, sequence (P22303 32-614): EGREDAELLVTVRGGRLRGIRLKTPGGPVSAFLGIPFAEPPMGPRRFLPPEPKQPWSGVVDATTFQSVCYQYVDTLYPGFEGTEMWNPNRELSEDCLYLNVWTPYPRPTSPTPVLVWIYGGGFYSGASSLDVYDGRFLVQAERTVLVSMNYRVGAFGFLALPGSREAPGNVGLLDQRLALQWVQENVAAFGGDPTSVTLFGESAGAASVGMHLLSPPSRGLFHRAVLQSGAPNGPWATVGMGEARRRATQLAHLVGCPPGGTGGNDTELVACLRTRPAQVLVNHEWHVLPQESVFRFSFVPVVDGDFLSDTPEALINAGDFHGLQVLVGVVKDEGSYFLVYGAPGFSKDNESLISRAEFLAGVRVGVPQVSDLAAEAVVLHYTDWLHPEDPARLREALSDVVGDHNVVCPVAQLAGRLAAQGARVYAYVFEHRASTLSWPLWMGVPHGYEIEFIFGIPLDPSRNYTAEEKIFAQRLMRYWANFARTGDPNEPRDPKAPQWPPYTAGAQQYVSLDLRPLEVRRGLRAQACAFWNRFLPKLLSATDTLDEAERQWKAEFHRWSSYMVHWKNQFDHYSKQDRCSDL

[8] = HEPES buffer pH 7.4, 30 min, room temperature

hBChE, sequence (P06276 29-602): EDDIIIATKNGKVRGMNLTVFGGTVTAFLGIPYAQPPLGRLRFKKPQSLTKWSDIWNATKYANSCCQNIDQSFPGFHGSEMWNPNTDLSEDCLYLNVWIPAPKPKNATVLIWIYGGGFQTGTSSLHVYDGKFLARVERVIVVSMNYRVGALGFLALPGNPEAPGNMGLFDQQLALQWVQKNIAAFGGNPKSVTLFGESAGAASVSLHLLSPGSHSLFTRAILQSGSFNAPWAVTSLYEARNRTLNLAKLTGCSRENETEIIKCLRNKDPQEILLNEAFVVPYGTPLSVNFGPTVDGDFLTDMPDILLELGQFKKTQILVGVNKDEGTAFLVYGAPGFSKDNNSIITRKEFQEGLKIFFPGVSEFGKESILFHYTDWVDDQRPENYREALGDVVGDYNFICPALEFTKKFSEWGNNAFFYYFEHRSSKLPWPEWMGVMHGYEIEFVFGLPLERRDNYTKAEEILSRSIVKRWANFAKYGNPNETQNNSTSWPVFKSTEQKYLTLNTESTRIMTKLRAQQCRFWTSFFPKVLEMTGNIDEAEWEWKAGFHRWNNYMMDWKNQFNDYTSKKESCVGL

CC(C)(C)/[N+]([O-])=C/c1ccc2cccc(OCCCN3CCCCC3)c2n1 [Compound 3, (Z)-N-tert-Butyl-1-(8-(3-(piperidin-1-yl)propoxy)quinolin-2-yl)methanimine oxide]
IC50 ([1]; read-out: IC50 ± SEM hBChE): 25.4 ± 2.1 nM

[O-]/[N+](=C\c1ccc2cccc(OCCCN3CCCCC3)c2n1)Cc1ccccc1 [Compound 4, (Z)-N-Benzyl-1-(8-(3-(piperidin-1-yl)propoxy)quinolin-2-yl)methanimine oxide]
IC50 [1]: 76.9 ± 6.3 nM

C#CCN1CCN(CCCOc2cccc3ccc(/C=[N+](\[O-])C(C)(C)C)nc23)CC1 [Compound 7, (Z)-N-tert-Butyl-1-(8-(3-(4-(prop-2-yn-1-yl)piperazin-1-yl)propoxy)quinolin-2-yl)methanimine oxide]
IC50 ([1]; read-out: IC50 ± SEM hBChE): 7.3 ± 1.1 nM

C#CCN1CCN(CCCOc2cccc3ccc(/C=[N+](\[O-])Cc4ccccc4)nc23)CC1 [Compound 8, (Z)-N-Benzyl-1-(8-(3-(4-(prop-2-yn-1-yl)piperazin-1-yl)propoxy)quinolin-2-yl)methanimine oxide]
IC50 [1]: 31 ± 6.4 nM

C/[N+]([O-])=C/c1ccc2cccc(O)c2n1 [Compound 9, (Z)-1-(8-Hydroxyquinolin-2-yl)-N-methylmethanimine oxide]
IC50 [2]: 10100 ± 2500 nM

CC(C)(C)/[N+]([O-])=C/c1ccc2cccc(O)c2n1 [Compound 10, (Z)-N-tert-butyl-1-(8-hydroxyquinolin-2-yl)methanimine oxide]
IC50 [2]: 16400 ± 1000 nM
interception point of Cu2+ titration (Yoe-Jones method) [3]: 0.5
new absorption maximum with equimolar Al3+ (bathochromic shift) [3, 8]: 296 nm
new absorption maximum with equimolar Cu2+ (bathochromic shift) [3, 8]: 310 nm
new absorption maximum with equimolar Zn2+ (bathochromic shift) [3, 8]: 309 nm
change in absorption spectra on addition of Fe2+ and Fe3+ [3]: hyperchromic shift
change in absorption spectra with Ca2+ and Mg2+ [3]: no major changes in absorption spectra
EC50 [4]: 119000 ± 1200 nM
IC50 ([1]; read-out: IC50 ± SEM hBChE): 5.1 ± 0.6 nM

[O-]/[N+](=C\c1ccc2cccc(O)c2n1)Cc1ccccc1 [Compound 11, (Z)-N-Benzyl-1-(8-hydroxyquinolin-2-yl)methanimine oxide]
antioxidant capacity against hydroxyl radicals [5]: striking antioxidant capacity
interception point of Cu2+ titration (Yoe-Jones method) [3]: 0.5
change in absorption spectra on addition of Fe2+ and Fe3+ [3]: hypochromic change in absorbance spectra
change in absorption spectra with Ca2+ and Mg2+ [3]: no major alterations in spectra
EC50 [4]: 126000 ± 100 nM
neuroprotection of primary cultured neurons after experimental ischemia [6]: remarkable activity for neuroprotection
IC50 [7]: 29 ± 3 nM
IC50 [1]: ≤ 1.1 nM
